Here are results for 33 compounds from PubChem BioAssay AID1259408 (Genetic Toxicology Data Bank (GENE-TOX), 2018).

Calls of active or inactive are those of the source. The rule behind the calls is not given here.

This data set relates to GENE-TOX genotoxicity assays, various organisms and cells. The data set can be described thus: GENE-TOX mutagenicity studies. To be noted: for call: Assay Type: In vivo carcinogenicity studies.
Where [1] appears, read: Species/Cell Type: Bacillus subtilis (H17 vs M45), Assay Type: Rec-assay, spot test, DNA effects (bacterial DNA repair), Assay Code: REW-, Evaluation Type: Evaluation A (Pre-1980).
Setting [2] is: Species/Cell Type: Escherichia coli polA (W3119 vs P3478), Assay Type: Rec-assay, DNA effects (bacterial DNA repair), Assay Code: RE1T, Evaluation Type: Evaluation A (Pre-1980).
The mark [3] stands for this setting: Species/Cell Type: Nonhuman, Assay Code: CCG+, Evaluation Type: Evaluation A (Pre-1980).
Setting [4] is: Species/Cell Type: Salmonella typhimurium (one or more of the five standard strains: TA98, TA100, TA1535, TA1537, and TA1538), Assay Type: Histidine reverse gene mutation, Ames assay, Assay Code: SAL-, Evaluation Type: Evaluation A (Pre-1980).
The mark [5] stands for this setting: Species/Cell Type: Nonhuman, Assay Type: Chromosome aberrations in vitro, Assay Code: CY&+, Evaluation Type: Evaluation A (Pre-1980).
[6] abbreviates: Species/Cell Type: Salmonella typhimurium (one or more of the five standard strains: TA98, TA100, TA1535, TA1537, and TA1538), Assay Type: Histidine reverse gene mutation, Ames assay, Assay Code: SAL+, Evaluation Type: Evaluation A (Pre-1980).
[7] abbreviates: Species/Cell Type: Drosophila melanogaster, Assay Type: Sex-linked recessive lethal gene mutation, Assay Code: SRL+, Evaluation Type: Evaluation A (Pre-1980).
Setting [8] is: Species/Cell Type: Saccharomyces cerevisiae, Assay Type: Reverse gene mutation, Assay Code: YERT, Evaluation Type: Evaluation A (Pre-1980).
The mark [9] stands for this setting: Species/Cell Type: Human, Assay Type: Sister-chromatid exchange (SCE) in vitro, Assay Code: SC1T, Evaluation Type: Evaluation B (Post-1980).
The mark [10] stands for this setting: Species/Cell Type: Salmonella typhimurium (one or more of the five standard strains: TA98, TA100, TA1535, TA1537, and TA1538), Assay Type: Histidine reverse gene mutation, Ames assay, Assay Code: SAL+*, Activation: With metabolic activation, Evaluation Type: Evaluation A (Pre-1980).
[11] abbreviates: Species/Cell Type: Arabidopsis species, Assay Type: Gene mutation, Assay Code: ARM+, Evaluation Type: Evaluation A (Pre-1980).
Where [12] appears, read: Species/Cell Type: Salmonella typhimurium (one or more of the five standard strains: TA98, TA100, TA1535, TA1537, and TA1538), Assay Type: Histidine reverse gene mutation, Ames assay, Assay Code: SALT, Evaluation Type: Evaluation A (Pre-1980).
Setting [13] is: Species/Cell Type: Bacillus subtilis (H17 vs M45), Assay Type: Rec-assay, spot test, DNA effects (bacterial DNA repair), Assay Code: REW+, Evaluation Type: Evaluation A (Pre-1980).
[14] abbreviates: Species/Cell Type: Nonhuman, Assay Code: CCG+L, Evaluation Type: Evaluation A (Pre-1980).
Setting [15] is: Species/Cell Type: Allium cepa, Assay Type: Chromosome aberrations, Assay Code: ALC+D, Dose Response: With dose response, Evaluation Type: Evaluation A (Pre-1980).

Take `C=C1[C@@H](C)[C@H]2[C@H](Cc3ccccc3)NC(=O)[C@]23OC(=O)/C=C/[C@H](O)CCC[C@@H](C)C/C=C/[C@H]3[C@@H]1O`: the mutagenic call under setting [1] is “inactive; negative”.

Regarding `Nc1ccc(C(=O)O)c(O)c1`, the mutagenic call under setting [2] is “no conclusion”.

In the case of `CCCCCCCC(=O)OCC(COC(=O)CCCCCCC)OC(=O)CCCCCCC`, where the note is “Species/Cell Type: Mouse, Sex: Female, Assay Type: Spot test, gene mutation, Assay Code: MSTT, Evaluation Type: Evaluation A (Pre-1980)”, the mutagenic call is reported as “no conclusion”.

`CC1CC(=O)O1` (centres undefined): the call under setting [3] was “active; positive”.

As for `[Cl][Al]([Cl])[Cl]`, the mutagenic call by setting is: under setting [1], “inactive; negative”; (Species/Cell Type: Nonhuman bone marrow, Assay Type: Chromosome aberrations, in vivo, Assay Code: CY#+, Evaluation Type: Evaluation A (Pre-1980)) “active; positive”; (Species/Cell Type: Syrian hamster embryo (SA7/SHE) cells, Assay Type: Cell transformation, viral enhanced, Assay Code: CT7-, Evaluation Type: Evaluation A (Pre-1980)) “inactive; negative”.

Regarding `C[C@@H]1C[C@@H]2OC(=O)[C@]3(C)[C@H]2[C@@H](OC3(C)O)[C@]2(C)C(=O)C=C[C@@H]12` (some centres undefined), the mutagenic call under setting [4] was “inactive; negative”.

For `CN(C#N)N=O`, the mutagenic call was “active; positive” under setting [5]; “active; positive” under setting [6]; “active; positive” (Species/Cell Type: Syrian hamster embryo (SHE) cells, Assay Type: Cell transformation, clonal assay, Assay Code: CTC+, Evaluation Type: Evaluation A (Pre-1980)).

For the compound `CSCCC(N)C(=O)O` (centres undefined), the mutagenic call under setting [2] is “no conclusion”.

Take `CS(=O)(=O)OCCCCO`: the mutagenic call under setting [7] is “active; positive”.

Regarding `COc1cc(/C=N/NC(=O)COc2ccc(Br)cc2CN2CCOCC2)ccc1O`, the mutagenic call under setting [8] is “no conclusion”.

As to `NC(=O)N1c2ccccc2C=Cc2cc(O)ccc21`, the mutagenic call reads like this: (Species/Cell Type: Human lymphocytes, Assay Type: Sister-chromatid exchange (SCE) in vitro, Assay Code: SCLT, Evaluation Type: Evaluation B (Post-1980)) “no conclusion”; under setting [9], “no conclusion”.

For `CN=[N+](C)[O-]`, the mutagenic call under setting [7] is “active; positive”; the mutagenic call (Species/Cell Type: Mouse (BALB/c-3T3) cells, Assay Type: Cell transformation, Assay Code: CTB-, Evaluation Type: Evaluation A (Pre-1980)) was “inactive; negative”; the mutagenic call under setting [10] was “active; positive”; the mutagenic call (Species/Cell Type: Salmonella typhimurium, Assay Type: Forward and reverse gene mutation, host-mediated assay, Assay Code: HMA+, Evaluation Type: Evaluation A (Pre-1980)) is “active; positive”. Moreover, the call under setting [3] is “active; positive”.

As to `O=C1CNCC(=O)N1C1CC1N1C(=O)CNCC1=O` (centres undefined), under “Species/Cell Type: Chinese hamster lung (V79) cells, Assay Type: Forward gene mutation at the HPRT or ouabain locus, Assay Code: V79-, Evaluation Type: Evaluation A (Pre-1980)”, the mutagenic call was “inactive; negative”.

With `CCCCCCCCCCCCN=C(N)N`, the mutagenic call (Species/Cell Type: Saccharomyces cerevisiae, Assay Type: Mitotic recombination or gene conversion, Assay Code: YEC-, Evaluation Type: Evaluation A (Pre-1980)) is “inactive; negative”.

In the case of `ClCCNCCNc1c2ccccc2nc2c1ccc1ccccc12`, the mutagenic call under setting [6] was “active; positive”.

As to `Cc1c(N(C)CS(=O)(=O)O)c(=O)n(-c2ccccc2)n1C`, the mutagenic call under setting [9] is given as “no conclusion”.

`OC[C@H]1O[C@@H](n2cnc3cncnc32)[C@H](O)[C@@H]1O`: the mutagenic call (Species/Cell Type: Arabidopsis species, Assay Type: Gene mutation, Assay Code: ARM-, Evaluation Type: Evaluation A (Pre-1980)) is “inactive; negative”.

In the case of `CCCCN(N=O)/C(N)=N/[N+](=O)[O-]`, the mutagenic call under setting [11] is “active; positive” and the mutagenic call under setting [6] is “active; positive”.

In the case of `N#Cc1ccc(N)cc1`, for the setting “Species/Cell Type: Mouse, Sex: Male, Assay Type: Sperm morphology, Assay Code: SPI-, Evaluation Type: Evaluation A (Pre-1980)”, the mutagenic call was “inactive; negative”.

In the case of `CCN(CCCCO)N=O`, the mutagenic call under setting [12] is reported as “no conclusion”.

Regarding `CC1CCCC(C)N1N=O` (centres undefined), the mutagenic call runs as follows: (Species/Cell Type: Drosophila melanogaster, Assay Type: Aneuploidy, partial sex chromosome loss, chromosome aberrations, Assay Code: DAPT, Evaluation Type: Evaluation A (Pre-1980)) “no conclusion”; (Species/Cell Type: Drosophila melanogaster, Assay Type: Aneuploidy, whole sex chromosome loss, chromosome aberrations, Assay Code: DACT, Evaluation Type: Evaluation A (Pre-1980)) “no conclusion”; (Species/Cell Type: Drosophila melanogaster, Assay Type: Sex-linked recessive lethal gene mutation, Assay Code: SRLT, Evaluation Type: Evaluation A (Pre-1980)) “no conclusion”; (Species/Cell Type: Saccharomyces cerevisiae, Assay Type: Forward gene mutation, Assay Code: YEF-*, Activation: With metabolic activation, Evaluation Type: Evaluation A (Pre-1980)) “inactive; negative”; (Species/Cell Type: Saccharomyces cerevisiae, Assay Type: Reverse gene mutation, Assay Code: YER+*, Activation: With metabolic activation, Evaluation Type: Evaluation A (Pre-1980)) “active; positive”. The call (Species/Cell Type: Nonhuman, Assay Code: CCGT, Evaluation Type: Evaluation A (Pre-1980)) was “no conclusion”.

`O=S(=O)(O)c1ccc(N=Nc2ccc(N=Nc3c(O)c(S(=O)(=O)O)cc4cc(S(=O)(=O)O)ccc34)c(S(=O)(=O)O)c2)cc1`: the mutagenic call under setting [12] is recorded as “no conclusion”.

`Cc1ccc2cc3c(ccc4ccccc43)cc2c1`: the mutagenic call is “active; positive” (Species/Cell Type: Nonhuman, Assay Type: Sister-chromatid exchange (SCE) in vitro, Assay Code: SC2+D, Dose Response: With dose response, Evaluation Type: Evaluation B (Post-1980)) and “active; positive” under setting [10].

For `c1ccc2c(c1)-c1ccc3ccc4cccc5cc-2c1c3c45`, under setting [3], the call is “active; positive”.

`O=[N+]([O-])c1ccc(-c2cscn2)o1`: the mutagenic call was “active; positive” under setting [13]; “active; positive” under setting [6]; “inactive; negative” (Species/Cell Type: Syrian hamster embryo (SHE) cells, Assay Type: Cell transformation, clonal assay, Assay Code: CTC-, Evaluation Type: Evaluation A (Pre-1980)). For the same compound, the call under setting [14] is “active; positive”.

As to `[CH3][Hg][Cl]`, the mutagenic call runs as follows: under setting [13], “active; positive”; (Species/Cell Type: Human lymphocytes, Assay Type: Sister-chromatid exchange (SCE) in vitro, Assay Code: SCL+, Evaluation Type: Evaluation B (Post-1980)) “active; positive”; (Species/Cell Type: Human, Assay Type: Sister-chromatid exchange (SCE) in vitro, Assay Code: SC1+, Evaluation Type: Evaluation B (Post-1980)) “active; positive”; (Species/Cell Type: Nonhuman, Assay Type: Sister-chromatid exchange (SCE) in vivo, Assay Code: SC3T, Evaluation Type: Evaluation B (Post-1980)) “no conclusion”; (Species/Cell Type: Rodents, Sex: Male, Assay Type: Dominant lethal test, Assay Code: DLT-, Evaluation Type: Evaluation A (Pre-1980)) “inactive; negative”.

Consider `CCOc1nc2c(c(=O)n(C)c(=O)n2C)n1C`, for which the mutagenic call is, setting by setting: under setting [15], “active; positive”; under setting [11], “active; positive”; (Species/Cell Type: Human lymphocytes or leukocytes, Assay Type: Chromosome aberrations in vitro, Assay Code: CY7+, Evaluation Type: Evaluation A (Pre-1980)) “active; positive”; under setting [5], “active; positive”; (Species/Cell Type: Nonhuman, Assay Type: Sister-chromatid exchange (SCE) in vitro, Assay Code: SC2-, Evaluation Type: Evaluation B (Post-1980)) “inactive; negative”; (Species/Cell Type: Nonhuman, Assay Type: Sister-chromatid exchange (SCE) in vitro, Assay Code: SC2T, Evaluation Type: Evaluation A (Pre-1980)) “no conclusion”. Also, under “Species/Cell Type: Vicia faba, Assay Type: Chromosome aberrations, Assay Code: VIC+, Evaluation Type: Evaluation A (Pre-1980)”, the mutagenic call is “active; positive”.

As for `CCOC(=O)COc1ccc(Cl)cc1CSC(=N)N`, under setting [8], the mutagenic call is on record as “no conclusion”.

Take `N#Cc1ccc2ccccc2c1`: the mutagenic call under setting [15] is “active; positive”.

`N#Cc1cccc2ccccc12`: under setting [15], the mutagenic call was “active; positive”.

On to `Cc1c(N)c(=O)n(-c2ccccc2)n1C`, for which the mutagenic call under setting [4] was “inactive; negative”.

In the case of `Nc1ccc(Cl)c(N)c1`, the call under setting [3] is “active; positive”.

Take `Cc1ccc2cc3c(ccc4ccccc43)c3c2c1CC3O` (centres undefined): the mutagenic call reads like this: (Species/Cell Type: Chinese hamster lung (V79) cells, Assay Type: Forward gene mutation at the HPRT or ouabain locus, Assay Code: V79+, Evaluation Type: Evaluation A (Pre-1980)) “active; positive”; under setting [10], “active; positive”. Further, the call under setting [14] was “active; positive”.
